Patent US20220347309A1, “PYRROLOBENZODIAZEPINE RESISTANCE” (ADC THERAPEUTICS SA, priority 2018, published 2022)

Assays:
[1] = test system: NCI-N87 PBDr cells (SG3199 acquired resistant); assay: MTS in vitro cytotoxicity, 144 h continuous exposure; assay type: cell-based, human
Method: To generate a resistant population to either ADCT-502 or SG3199, human gastric cancer NCI-N87 cells (expressing HER2) were incubated with an approximate IC50 dose of the drug for 144 hours. The cells were then washed and returned to fresh medium until normal cell growth was recovered. This process was repeated until a measurable and stable loss in cytotoxic efficacy was established using the MTS assay.
To measure the in vitro cytotoxicity with the MTS assay, cells were incubated with a 10-fold dilution range of ADCT-502 or SG3199, and incubated with continuous exposure for 144 hours (at least three cell doubling times under normal cell culture conditions). After incubation the CellTiter 960 AQueous One Solution Cell Proliferation Assay (MTS) was used to measure growth inhibition, by adding 20 μl reagent to the cells and incubating for 3-4 hours, then reading the absorbance at 492 nm. Mean % growth of the ADC or PBD treated cells was calculated relative to an untreated control.
To measure the cross-resistance of the NCI-N87 ADCR cells to the SG3199 PBD warhead, and the PBDR cells to ADCT-502, the in vitro cytotoxicity assay was carried out as described above, treating the cells with the opposite drug molecule to the one with which they were generated.

NCI-N87 ADCr cells = assay: Single dose 2-hour exposure cytotoxicity (MTS); assay type: cell-based, human; conditions: 1 nM ADCT-502 or 1 nM SG3199 for 2 hours, then 144 hours
Method: (§1) To investigate growth inhibition under the same conditions under which DNA ICL formation was measured, NCI-N87-ADCR cells were treated with 1 nM ADCT-502, and PBDR cells treated with 1.7 nM SG3199 for 2 hours, then washed and incubated for 144 hours under normal cell culture conditions. The MTS assay and calculation of % growth compared to the untreated control was carried out as previously described.
(§2) To investigate whether the cross-resistance in ICL formation observed in the NCI-N87 resistant cell lines also correlates with growth inhibition at this dose, ADCR cells were treated with 1 nM SG3199, and PBDR cells treated with 1.7 nM ADCT-502 for 2 hours, then washed and incubated for 144 hours under normal cell culture conditions. The MTS assay and calculation of % growth compared to the untreated control was carried out as previously described. The results are shown in FIG. 24 for the ADCR line and FIG. 25 for the PBDR line.

NCI-N87 PBDr cells = assay: Single dose 2-hour exposure cytotoxicity (MTS); assay type: cell-based, human; conditions: 1.7 nM ADCT-502 or 1.7 nM SG3199 for 2 hours, then 144 hours
Method: as §1, §2

[2] = test system: human tumor cell lines expressing MDR1; conditions: cited from earlier work

COc1cc2c(cc1OCCCCCOc1cc3c(cc1OC)C(=O)N1C=C(C)C[C@H]1C=N3)N=C[C@@H]1CC(C)=CN1C2=O [SG3199]
fold resistance compared to wildtype ([1]; NCI-N87 PBDr vs NCI-N87 wt IC50): 3.7 fold
IC50 ([1]; NCI-N87 PBDr, 144 h continuous exposure, mean, read-out: IC50): 0.0586 nM
2 hr mean % growth (NCI-N87 ADCr cells): 57.2%
2 hr mean % growth (NCI-N87 PBDr cells): 76.6%
susceptibility to multidrug resistance mechanisms [2]: susceptible to multidrug resistance mechanisms
